Experimental data: patent publication US5959123A, “3,4-Disubstituted azetidin-2-one derivatives useful as cysteine proteinase regulators” (Synphar Laboratories, Inc., priority 1997, dated 1999)

Legend:
cathepsin L = cathepsin L (Rattus norvegicus, UniProt P07154); experiment: In vitro assay for cathepsin L inhibition; assay type: biochemical; settings: r rat cathepsin L; pH 5.0; 10 min incubation at room temperature; substrate N-CBZ-Phe-Arg-AMC (1 mM, 20 μl)
Protocol: To a 170 μl of enzyme-buffer mixture (enzyme: r rat cathepsin L, diluted to give approximate 15 F units/min, buffer: 58.8 mM sodium citrate, 1.18 mM EDTA, 235 mM sodium chloride, 5 mM DTT, pH 5.0) a 10 μL of inhibitor (dissolved in DMSO) was added. After 10 min of incubation at room temperature, a 20 μl of 1 mM substrate (N-CBZ-Phe-Arg-AMC, dissolved in DMSO) was added to initiate reaction. Reading is followed up for 10 min at the fluoroscan reader (excitation at 380 nm emission at 460 nm).
(§1) A plot of percentage of inhibition vs inhibitor concentration is obtained, and IC50 is determined using a linear regression calculation (concentration of inhibitor which will give 50% inhibition).

cathepsin B = cathepsin B (Rattus norvegicus, UniProt P00787); experiment: In vitro assay for cathepsin B inhibition; assay type: biochemical; settings: r rat cathepsin B; pH 5.1; 10 min incubation at room temperature; substrate N-CBZ-Phe-Arg-AMC (5 mM, 20 μl)
Protocol: The compounds of formula I were tested for inhibition of cathepsin B using the known method (A. J. Barret et al., Biochem. J. 1982, 201, 189-198). To a 170 μl of enzyme-buffer mixture (enzyme: r rat cathepsin B, diluted to give approximate 10 F units/min, buffer: 56 mM sodium acetate, 1.124 mM EDTA, 10 mM DTT, pH 5.1) a 10 μL of inhibitor (dissolved in DMSO) was added. After 10 min of incubation at room temperature, a 20 μl of 5 mM substrate (N-CBZ-Phe-Arg-AMC, dissolved in DMSO) was added to initiate reaction. Reading is followed up for 10 min at the fluoroscan reader (excitation at 380 nm emission at 460 nm).
as §1

Chain of cathepsin L (P07154 114-334): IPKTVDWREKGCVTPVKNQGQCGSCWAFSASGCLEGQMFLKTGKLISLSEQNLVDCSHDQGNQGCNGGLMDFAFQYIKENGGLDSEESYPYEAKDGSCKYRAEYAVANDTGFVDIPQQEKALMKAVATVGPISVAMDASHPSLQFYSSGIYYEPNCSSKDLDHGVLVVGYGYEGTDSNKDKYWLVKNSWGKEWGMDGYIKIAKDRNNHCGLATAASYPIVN
Chain of cathepsin B (P00787 80-333 limits assumed): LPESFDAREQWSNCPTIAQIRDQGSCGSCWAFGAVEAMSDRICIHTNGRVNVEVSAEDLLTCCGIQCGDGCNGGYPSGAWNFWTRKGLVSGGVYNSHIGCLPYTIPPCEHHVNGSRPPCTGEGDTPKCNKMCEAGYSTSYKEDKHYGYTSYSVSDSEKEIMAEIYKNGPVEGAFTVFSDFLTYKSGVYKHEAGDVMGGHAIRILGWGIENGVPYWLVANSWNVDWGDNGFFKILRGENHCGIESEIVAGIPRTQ

| SMILES | IC50 (cathepsin L) | IC50 (cathepsin B) |
| --- | --- | --- |
| CC(OC(C)(C)C)[C@H](NC(=O)OCc1ccccc1)C(=O)N[C@@H]1C(=O)N[C@@H]1Oc1ccccc1 (stereo partly drawn) [Example 26, (3S, 4R)-3-[2S-2-benzyloxycarbonylamino-2-(1-t-butyloxyethyl)-acetamido]-4-phenoxy-azetidin-2-one] | 10.7 µM | > 50 µM |
| CC(C)(C)C[C@H](NC(=O)OCc1ccccc1)C(=O)N[C@@H]1C(=O)N[C@H]1Oc1ccccc1 [Example 27, (3S, 4S)-3-(2S-2-benzyloxycarbonylamino-2-t-butylmethyl-acetamido)-4-phenoxy-azetidin-2-one] | 2.3 µM | 23 µM |
| CC(C)(C)C[C@H](NC(=O)CCc1ccccc1)C(=O)N[C@@H]1C(=O)N[C@H]1Oc1ccccc1 [Example 28, (3S, 4S)-3-[2S-2-(3-phenylpropionoyl)amino-2-t-butylmethyl-acetamido]-4-phenoxy-azetidin-2-one] | 11.4 µM | 45 µM |
| CC(C)(C)[C@H](NC(=O)CCc1ccccc1)C(=O)N[C@@H]1C(=O)N[C@H]1Oc1ccccc1 [Example 29, (3S, 4S)-3-[2S-2-(3-phenylpropionoyl)amino-2-t-butyl-acetamido]-4-phenoxy-azetidin-2-one] | > 50 µM | > 50 µM |
| COc1ccc(C[C@H](NC(=O)CCc2ccccc2)C(=O)N[C@@H]2C(=O)N[C@H]2Oc2ccccc2)cc1OC [Example 30, (3S, 4s)-3-[2S-2-(3-phenylpropionoyl)amino-2-(3,4-dimethoxyphenyl)methyl-acetamido]-4-phenoxy-azetidin-2-one] | 1.6 µM | 48 µM |
| O=C(CCc1ccccc1)N[C@@H](Cc1ccc2c(c1)OCCO2)C(=O)N[C@@H]1C(=O)N[C@H]1Oc1ccccc1 [Example 31] | 0.08 µM | 9.7 µM |
